Like-named read-outs stand apart in the source and are kept apart here.
Assays:
ErbB2 or EGFR = molecular target: T1, ErbB2 or EGFR; experiment: ErbB family substrate phosphorylation enzyme assay (HTRF), Method A or Method B; assay type: biochemical
T1 construct: enzymes purified from a baculovirus expression system; Reagent production was conducted essentially as described in Brignola, P. S., et al, (2002) J. Biol. Chem. 277(2): 1576-1585
Protocol: Compounds of the present invention were tested for EGFR, ErbB-2, and ErbB-4 protein tyrosine kinase inhibitory activity in substrate phosphorylation assays using enzymes purified from a baculovirus expression system. Reagent production was conducted essentially as described in Brignola, P. S., et al, (2002) J. Biol. Chem. 277(2): 1576-1585.
The method measures the ability of the isolated enzyme to catalyse the transfer of the gamma-phosphate from ATP onto the tyrosine residue of a biotinylated synthetic peptide referenced “Peptide C” in Brignola, P. S., et al, (2002) J. Biol. Chem. 277(2):1576-1585. The extent of tyrosine phosphorylation was measured using an anti-phosphotyrosine antibody, and quantified by homogenous time-resolved fluorescence (HTRF).
Reactions were performed in black 384-well polystyrene flat-bottom plates in a final volume of 20 ul. Assays were performed by adding 10 μl of each of the following solutions, substrate Mix and enzyme mix: The Substrate mix contained 100 mM 3-[N-morpholino]propanesulfonic acid (MOPS) (pH 7.5), 2 mM MnCl2, 20 μM ATP, 0.01% Tween-20, 0.1 mg/mL (BSA), 0.8 uM peptide substrate, and 1 mM dithiothreitol. The enzyme mix contained 100 mM MOPS (pH7.5); 0.01% Tween-20; 0.1 mg/mL BSA, and either 0.8 nM EGFR, 10 nM ErbB2, or 1 nM ErbB4
During the course of these studies, two separate methods have been used to measure the potency of compounds. In Method A, the substrate mix was added to the compound plates first, then the reaction was started by adding the enzyme mix. In Method B, the enzyme mix was added to the compound plates and the plates were incubated at 20° C. for 1 hour. The reactions were then started by adding the substrate mix.
After initiating the reaction with either method describe above, the reactions were allowed to proceed for 90 minutes at 20° C. The reactions were then terminated by the addition of 20 μl 100 mM EDTA to each well. 40 μl/well of HTRF detection mix were added to the assay plates. The final concentrations of the detection reagents were: 100 mM HEPES (pH7.5), 0.1 mg/mL BSA, 15 nM streptavidin-labeled allophycocyanin (PerkinElmer), and 1 nM europium-labeled anti-phosphotyrosine antibody (PerkinElmer). Assay plates were left unsealed and were counted in a Wallac Multilabel Counter 1420 (PerkinElmer).
Compounds under analysis were dissolved in Me2SO to 1.0 mM and serially diluted 1 to 3 with Me2SO through twelve dilutions. 1 μl of each concentration was transferred to the corresponding well of an assay plate. This creates a final compound concentration range from 0.00027 to 47.6 μM.
The data for dose responses were plotted as % Inhibition calculated with the data reduction formula 100*(1−(U1−C2)/(C1−C2)) versus concentration of compound where U is the unknown value, C1 is the average control value obtained for 4.76% DMSO, and C2 is the average control value obtained for 0.035 M EDTA. Data were fitted with a curve described by: y=((Vmax*x)/(K+x))+Y^2 where Vmax is the upper asymptote, Y2 is the Y intercept, and K is the IC50. The results for each compound were recorded as pIC50s, calculated as follows: pIC50=−Log 10(K)

[1] = tested on: BT474 and HN5 tumor cell lines; experiment: Methylene blue growth inhibition assay (cellular Method A); assay type: cell-based, Human; settings: 3 days, read-out: Activity (Method): growth inhibition IC50 class
Protocol: Human breast (BT474) and head and neck (HN5) were cultured in low glucose DMEM (Life Technologies 12320-032) containing 10% fetal bovine serum (FBS). Human colon tumor cells (Colo205) were cultured in DMEM (Invitrogen, 10564) containing 10% FBS. The SV40 transformed human mammary epithelial cell line HB4a was transfected with either human H-ras cDNA (HB4a r4.2) or the human c-ErbB2 cDNA (HB4a c5.2). The HB4a clones were cultured in RPMI containing 10% FBS, insulin (5 g/mL), hydrocortisone (5 g/mL), supplemented with the selection agent hygromycin B (50 g/mL). All lines were grown in a humidified incubator at 37° C. in 95% air, 5% CO2. Cells were harvested using trypsin/EDTA, counted using a haemocytometer, and plated in 100 microliters of the appropriate media, at the following densities, in a 96-well tissue culture plate (Falcon 3075): BT474 10,000 cells/well, HN5 3,000 cells/well. The next day, compounds were diluted in DMEM containing […] gentamicin, at twice the final required concentration, from 10 mM stock solutions in DMSO. 100 microliters/well of these dilutions were added to the 100 microliters of media currently on the cell plates. Medium containing 0.6% DMSO was added to control wells. Compounds diluted in DMEM were added to all cell lines. The final concentration of DMSO in all wells was 0.3%. Cells were returned to the incubator (37° C., 10% CO2) for 3 days. Medium was then removed by aspiration. Cell biomass was estimated by staining cells with 90 microliters per well methylene blue (Sigma M9140, 0.5% in 1:1 ethanol:water), and incubation at rt for at least 30 minutes. Stain was removed, and the plates rinsed by immersion in deionized water and air-dried. To release stain from the cells 100 microliters of solubilization solution was added (1% N-lauroyl sarcosine, Sodium salt, Sigma L5125, in PBS), and plates were shaken gently for about 30 minutes. Optical density at 620 nm was measured on a microplate reader. Percent inhibition of cell growth was calculated relative to vehicle treated control wells. Concentration of compound that inhibits 50% of control cell growth (IC50) was interpolated using nonlinear regression (Levenberg-Marquardt) and the equation, y=Vmax*(1−(x/(K+x)))+Y2, where “K” was equal to the IC50. Method B: Celltiter Glo® Growth Inhibition Assays

[2] = Method A: substrate mix added first, reaction started with enzyme mix
[3] = Method B: enzyme mix pre-incubated with compound 1 hour at 20° C., started with substrate mix

SMILES	IC50 ([1]; Homo sapiens, BT-474, 72 h) [nM]	further results
CS(=O)(=O)Cc1ccc(Nc2nccc(-c3c(-c4cccc(NC(=O)c5cc(F)ccc5F)c4)nn4ccccc34)n2)cc1 [Example 53, 2,5-Difluoro-N-(3-{3-[2-({4-[(methylsulfonyl)methyl]-phenyl}amino)-4-pyrimidinyl]pyrazolo[1,5-a]pyridin-2-yl}phenyl)benzamide]	100 to 1000	Activity (Method): pIC50 class against ErbB2 or EGFR (ErbB2 or EGFR; [2]): ++ (A) (at least one pIC50 measurement greater than 6 against either ErbB2 or EGFR but no measurement greater than pIC50 of 7)
O=C(Nc1cccc(-c2nn3ccccc3c2-c2ccnc(Nc3cccc(F)c3)n2)c1)c1cccc(F)c1F [Example 14, 2,3-Difluoro-N-(3-{3-[2-(3-fluoro-phenylamino)-pyrimidin-4-yl]-pyrazolo[1,5-a]pyridin-2-yl}-phenyl)-benzamide]	< 100	Activity (Method): pIC50 class against ErbB2 or EGFR (ErbB2 or EGFR; [3]): +++ (B) (at least one pIC50 measurement of greater than 7 against either ErbB2 or EGFR)
COc1ccc(Nc2nccc(-c3c(-c4cccc(NC(=O)c5c(F)cccc5F)c4)nn4ccccc34)n2)cc1N1CCNCC1 [Example 111, 2,6-Difluoro-N-{3-[3-(2-{[4-(methyloxy)-3-(1-piperazinyl)phenyl]amino}-4-pyrimidinyl)pyrazolo[1,5-a]pyridin-2-yl]phenyl}benzamide]	< 100	Activity (Method): pIC50 class against ErbB2 or EGFR (ErbB2 or EGFR; [3]): +++ (B) (at least one pIC50 measurement of greater than 7 against either ErbB2 or EGFR)
O=C(Nc1cccc(-c2nn3ccccc3c2-c2ccnc(Nc3ccc4c(c3)OCCO4)n2)c1)c1ccccc1Cl [Example 6, 2-Chloro-N-(3-{3-[2-(2,3-dihydro-benzo[1,4]dioxin-6-ylamino)-pyrimidin-4-yl]-pyrazolo[1,5-a]pyridin-2-yl}-phenyl)-benzamide]	< 100	Activity (Method): pIC50 class against ErbB2 or EGFR (ErbB2 or EGFR; [2]): +++ (A) (at least one pIC50 measurement of greater than 7 against either ErbB2 or EGFR)
O=C(Nc1cccc(-c2nn3ccccc3c2-c2ccnc(Nc3cccc(F)c3)n2)c1)c1c(F)ccc(F)c1Cl [Example 21, 2-Chloro-3,6-difluoro-N-(3-{3-[2-(3-fluoro-phenylamino)-pyrimidin-4-yl]-pyrazolo[1,5-a]pyridin-2-yl}-phenyl)-benzamide]	100 to 1000	Activity (Method): pIC50 class against ErbB2 or EGFR (ErbB2 or EGFR; [3]): +++ (B) (at least one pIC50 measurement of greater than 7 against either ErbB2 or EGFR)
Cn1cccc1C(=O)Nc1cccc(-c2nn3ccccc3c2-c2ccnc(Nc3ccccc3)n2)c1 [Example 149, N-{3-[3-(2-phenylamino-4-pyrimidinyl)-pyrazolo[1,5-b]pyridin-2-yl]phenyl}-1-methyl-1H-pyrrole-2-carboxamide]	100 to 1000	Activity (Method): pIC50 class against ErbB2 or EGFR (ErbB2 or EGFR; [2]): ++ (A) (at least one pIC50 measurement greater than 6 against either ErbB2 or EGFR but no measurement greater than pIC50 of 7)
Cn1nnc2cc(C(=O)Nc3cccc(-c4nn5ccccc5c4-c4ccnc(Nc5cccc(F)c5)n4)c3)ccc21 [Example 26, N-[3-(3-{2-[(3-fluorophenyl)amino]-4-pyrimidinyl}pyrazolo[1,5-a]pyridin-2-yl)phenyl]-1-methyl-1H-1,2,3-benzotriazole-5-carboxamide]	> 1000	Activity (Method): pIC50 class against ErbB2 or EGFR (ErbB2 or EGFR; [3]): ++ (B) (at least one pIC50 measurement greater than 6 against either ErbB2 or EGFR but no measurement greater than pIC50 of 7)
CC(c1cccc(Nc2nccc(-c3c(-c4cccc(NC(=O)c5c(F)cccc5F)c4)nn4ccccc34)n2)c1)S(C)(=O)=O (single isomer, unassigned) [Example 123, 2,6-Difluoro-N-(3-{3-[2-({3-[1-(methylsulfonyl)ethyl]-phenyl}amino)-4-pyrimidinyl]pyrazolo[1,5-a]pyridin-2-yl}phenyl)benzamide]	< 100	–
Cc1nc2ccc(Nc3nccc(-c4c(-c5cccc(NC(=O)c6c(F)cccc6F)c5)nn5ccccc45)n3)cc2nc1C [Example 97, N-[3-(3-{2-[(2,3-Dimethyl-6-quinoxalinyl)amino]-4-pyrimidinyl}pyrazolo[1,5-a]pyridin-2-yl)phenyl]-2,6-difluorobenzamide]	100 to 1000	–
CC(c1cccc(Nc2nccc(-c3c(-c4cccc(NC(=O)c5c(F)cccc5F)c4)nn4ccccc34)n2)c1)S(C)(=O)=O (single isomer, unassigned) [Example 124, 2,6-Difluoro-N-(3-{3-[2-({3-[1-(methylsulfonyl)ethyl]-phenyl}amino)-4-pyrimidinyl]pyrazolo[1,5-a]pyridin-2-yl}phenyl)benzamide]	–	IC50 [1]: < 100 nM
Cc1ccc2c(-c3ccnc(Nc4cccc(F)c4)n3)c(-c3cccc(NC(=O)c4cc(F)ccc4F)c3)nn2c1 [Example 40, 2,5-Difluoro-N-[3-(3-{2-[(3-fluorophenyl)amino]-4-pyrimidinyl}-6-methylpyrazolo[1,5-a]pyridin-2-yl)phenyl]benzamide]	100 to 1000	–
O=C(Nc1cccc(-c2nn3ccccc3c2-c2ccnc(Nc3cccc(F)c3)n2)c1)c1ccccn1 [Example 76, N-[3-(3-{2-[(3-fluorophenyl)amino]-4-pyrimidinyl}pyrazolo[1,5-a]pyridin-2-yl)phenyl]-2-pyridinecarboxamide]	–	Activity (Method): pIC50 class against ErbB2 or EGFR (ErbB2 or EGFR; method not given): +++ (at least one pIC50 measurement of greater than 7 against either ErbB2 or EGFR)
O=C(Nc1cccc(-c2nn3ccccc3c2-c2ccnc(Nc3cccc(F)c3)n2)c1)c1ccccn1 [Example 22, Pyridine-2-carboxylic acid (3-{3-[2-(3-fluoro-phenylamino)-pyrimidin-4-yl]-pyrazolo[1,5-a]pyridin-2-yl}-phenyl)-amide]	100 to 1000	–
O=C(Cc1ccccc1)c1ccc(Nc2nccc(-c3c(-c4cccc(NC(=O)c5c(F)cccc5F)c4)nn4ccccc34)n2)cc1 [Example 102, 2,6-Difluoro-N-{3-[3-(2-{[4-(phenylacetyl)phenyl]-amino}-4-pyrimidinyl)pyrazolo[1,5-a]pyridin-2-yl]-phenyl}benzamide]	100 to 1000	–
